The record followed here is ChEMBL document CHEMBL1155844, “Pyrazole inhibitors of coactivator associated arginine methyltransferase 1 (CARM1)” (Bioorg Med Chem Lett, 2008).

Chain of Protein arginine N-methyltransferase 3 (O60678 whole entry): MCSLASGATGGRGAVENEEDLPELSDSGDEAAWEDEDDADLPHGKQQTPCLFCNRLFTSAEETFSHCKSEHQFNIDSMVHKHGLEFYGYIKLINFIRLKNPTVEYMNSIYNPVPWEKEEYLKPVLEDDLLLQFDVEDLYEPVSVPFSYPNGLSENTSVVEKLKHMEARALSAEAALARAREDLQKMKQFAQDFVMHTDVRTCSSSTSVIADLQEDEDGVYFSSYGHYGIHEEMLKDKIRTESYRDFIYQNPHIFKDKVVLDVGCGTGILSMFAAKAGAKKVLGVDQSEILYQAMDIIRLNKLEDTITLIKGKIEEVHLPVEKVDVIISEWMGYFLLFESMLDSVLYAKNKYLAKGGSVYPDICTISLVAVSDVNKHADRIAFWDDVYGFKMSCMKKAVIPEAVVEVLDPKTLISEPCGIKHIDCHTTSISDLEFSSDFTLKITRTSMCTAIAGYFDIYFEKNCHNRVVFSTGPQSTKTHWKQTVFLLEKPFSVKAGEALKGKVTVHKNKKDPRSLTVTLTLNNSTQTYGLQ

The target in the first experiment is T1, Histone-arginine methyltransferase CARM1 (Homo sapiens, UniProt Q86X55).
T1 sequence (Q86X55 whole entry): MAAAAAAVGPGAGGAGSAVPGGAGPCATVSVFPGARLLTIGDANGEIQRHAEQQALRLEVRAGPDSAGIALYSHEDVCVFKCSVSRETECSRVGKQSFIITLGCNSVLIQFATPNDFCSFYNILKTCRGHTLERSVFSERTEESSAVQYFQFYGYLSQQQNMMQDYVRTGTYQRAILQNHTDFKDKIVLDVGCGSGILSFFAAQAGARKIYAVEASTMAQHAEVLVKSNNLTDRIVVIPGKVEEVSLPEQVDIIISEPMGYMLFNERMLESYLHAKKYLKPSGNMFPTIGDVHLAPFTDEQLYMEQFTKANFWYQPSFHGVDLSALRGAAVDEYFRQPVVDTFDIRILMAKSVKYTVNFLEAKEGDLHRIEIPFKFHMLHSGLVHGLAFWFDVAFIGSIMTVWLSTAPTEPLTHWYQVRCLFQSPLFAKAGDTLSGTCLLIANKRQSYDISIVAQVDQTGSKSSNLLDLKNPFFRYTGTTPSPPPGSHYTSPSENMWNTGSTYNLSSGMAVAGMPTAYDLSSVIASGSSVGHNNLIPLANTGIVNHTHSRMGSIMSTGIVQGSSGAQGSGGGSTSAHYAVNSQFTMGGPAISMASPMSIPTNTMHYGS
Put plainly: Inhibition of human GST-tagged CARM1 by methylation assay.
As for `C[C@H](N)C(=O)NCc1ccc(-n2nc(C(F)(F)F)cc2C(=O)NCc2ccccc2)cc1`, the IC50 is greater than 50 µM.

`C[C@H](N)C(=O)NCc1cccc(-n2nc(C(F)(F)F)cc2C(=O)N[C@H](C)c2ccccc2)c1` had an IC50 of 0.18 µM.

In the case of `CS(=O)(=O)c1ccccc1-c1ccc(NC(=O)c2cc(C(F)(F)F)nn2-c2cccc(CNC(=O)CN)c2)cc1`, the IC50 stood at 1.8 µM.

Consider `CNC(=O)c1cc(C(F)(F)F)nn1-c1cccc(CNC(=O)CN)c1`, for which the IC50 was 10.6 µM.

`C[C@H](N)C(=O)NCc1cccc(-n2nc(C(F)(F)F)cc2C(=O)N(C)Cc2ccccc2)c1`: the IC50 came out at 3.4 µM.

In the case of `C[C@H](N)C(=O)NCc1cccc(-n2nc(C(F)(F)F)cc2C(=O)NC2CCCCC2)c1`, the IC50 amounted to 4.3 µM.

The molecule `CN(C)C(=O)c1cc(C(F)(F)F)nn1-c1cccc(CNC(=O)CN)c1` gave an IC50 of 29.8 µM.

In the case of `NCC(=O)NCc1cccc(-n2nc(C(F)(F)F)cc2C(=O)Nc2ccc(-c3ccccc3)cc2)c1`, half-maximal inhibition (IC50) required 1.42 µM.

For the molecule `C[C@H](N)C(=O)NCc1ccccc1-n1nc(C(F)(F)F)cc1C(=O)NCc1ccccc1`, the IC50 was greater than 50 µM.

`NCC(=O)NCc1cccc(-n2nc(C(F)(F)F)cc2C(=O)Nc2ccccc2)c1` had an IC50 of 7.7 µM.

Molecule `C[C@H](N)C(=O)NCc1cccc(-n2nc(C(F)(F)F)cc2C(=O)Nc2ccc(-c3ccccc3S(C)(=O)=O)cc2F)c1` gave a concentration for half-maximal inhibition (IC50) of 0.16 µM.

For the molecule `C[C@H](N)C(=O)NCc1cccc(-n2nc(C(F)(F)F)cc2C(=O)N[C@@H](C)c2ccccc2)c1`, it took 7.1 µM to reach half-maximal inhibition (IC50).

For the molecule `C[C@H](N)C(=O)NCc1cccc(-n2nc(C(F)(F)F)cc2C(=O)NCCc2ccccc2)c1`, the concentration for half-maximal inhibition (IC50) worked out at 1.1 µM.

The molecule `C[C@@H](N)C(=O)NCc1cccc(-n2nc(C(F)(F)F)cc2C(=O)Nc2ccc(-c3ccccc3S(C)(=O)=O)cc2F)c1` returned an IC50 of 20.1 µM.

For the molecule `CS(=O)(=O)c1ccccc1-c1ccc(NC(=O)c2cc(C(F)(F)F)nn2-c2cccc(CNC(=O)CCN)c2)c(F)c1`, half-maximal inhibition (IC50) required 16.9 µM.

`CS(=O)(=O)c1ccccc1-c1ccc(NC(=O)c2cc(C(F)(F)F)nn2-c2cccc(CNC(=O)C(N)C(F)(F)F)c2)c(F)c1` (centres undefined): the concentration for half-maximal inhibition (IC50) is greater than 30 µM.

Consider `CNCC(=O)NCc1cccc(-n2nc(C(F)(F)F)cc2C(=O)Nc2ccc(-c3ccccc3S(C)(=O)=O)cc2F)c1`, for which the half-maximal inhibitory concentration (IC50) was greater than 30 µM.

In turn, `CC(C)(N)C(=O)NCc1cccc(-n2nc(C(F)(F)F)cc2C(=O)Nc2ccc(-c3ccccc3S(C)(=O)=O)cc2F)c1` displayed an IC50 greater than 30 µM.

Consider `CS(=O)(=O)c1cccc(NC(=O)c2cc(C(F)(F)F)nn2-c2cccc(CNC(=O)CN)c2)c1`, for which the IC50 was determined as 0.23 µM.

For the molecule `C[C@H](N)C(=O)NCc1cccc(-n2nc(C(F)(F)F)cc2C(=O)Nc2ccccc2)c1`, half-maximal inhibition (IC50) required 1.32 µM.

Molecule `C[C@H](N)C(=O)NCc1cccc(-n2nc(C(F)(F)F)cc2NC(=O)OCc2ccccc2)c1` displayed a half-maximal inhibitory concentration (IC50) of 0.6 µM.

`C[C@H](N)C(=O)NCc1cccc(-n2nc(C(F)(F)F)cc2C(=O)NCc2ccccc2)c1` gave an IC50 of 0.08 µM.

Another experiment deals with Protein arginine N-methyltransferase 1 (Homo sapiens, UniProt Q99873). As to the kind of experiment: Inhibition of GST-tagged PRMT1 by methylation assay.
Chain of Protein arginine N-methyltransferase 1 (Q99873 whole entry): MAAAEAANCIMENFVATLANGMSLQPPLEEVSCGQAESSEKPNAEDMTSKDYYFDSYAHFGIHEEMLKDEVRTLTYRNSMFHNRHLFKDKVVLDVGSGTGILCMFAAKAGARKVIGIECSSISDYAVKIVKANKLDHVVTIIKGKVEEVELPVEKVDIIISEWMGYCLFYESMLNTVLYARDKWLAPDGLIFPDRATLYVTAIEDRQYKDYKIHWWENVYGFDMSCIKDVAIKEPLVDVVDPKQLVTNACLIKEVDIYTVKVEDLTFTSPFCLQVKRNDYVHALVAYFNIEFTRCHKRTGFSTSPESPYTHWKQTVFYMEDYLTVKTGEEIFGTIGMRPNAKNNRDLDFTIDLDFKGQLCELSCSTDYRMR
Turning to `C[C@H](N)C(=O)NCc1cccc(-n2nc(C(F)(F)F)cc2C(=O)NCc2ccccc2)c1`, the IC50 was greater than 25 µM.

Another experiment has as its target Protein arginine N-methyltransferase 3 (Homo sapiens, UniProt O60678). As to the kind of experiment: Inhibition of GST-tagged PRMT3 by methylation assay.
As for `C[C@H](N)C(=O)NCc1cccc(-n2nc(C(F)(F)F)cc2C(=O)NCc2ccccc2)c1`, the IC50 was greater than 25 µM.

A word on the IC50: it is the concentration needed to halve the response being measured. High values mean weaker potency in that assay, low ones greater potency in that assay.
